Source: patent publication US20220313690A1, “SYNERGISTIC EFFECT OF EYP001 AND IFN FOR THE TREATMENT OF HBV INFECTION” (ENYO PHARMA, priority 2019, published 2022)

Tests used:
HBcrAg = HBcrAg change from baseline after 4-week treatment course in chronically infected HBV patients; type: in vivo, human; settings: 4 weeks
Text: PBO: placebo. peg-IFN: pegylated interferon alpha2a. HBcrAg: hepatitis B core-related antigen.
(§1) HBV chronically infected patients (male (n=39) and female (n=34)) underwent a 4-week treatment course as either daily oral FXR agonist EYP001a monotherapy or placebo or entecavir (ETV) in Part A of the study (n=48) or in combination with interferon (n=23, weekly sub-cutaneous injections of pegylated IFNα2a, PEG-IFN) in Part B. Patient characteristics were: mean age of 39.7 years (range: 19-63); 6 of 73 were HBeAg-positive; 70% treatment naïve; mean baselines HBV DNA 4.2 (±1.5 SD) log 10 IU/mL, HBsAg 3.5 (±0.8 SD) log 10 IU/mL, and genotypes A (25), B (8), C (10), D (7) and E (4).

HBV pgRNA = HBV pgRNA change from baseline after 4-week treatment course in chronically infected HBV patients; type: in vivo, human; settings: 4 weeks
Description: FIG. 1: HBV pgRNA (log 10 copies/mL) changes from baseline after a 4 week anti-HBV treatment course of FXR agonist EYP001a or placebo in combination with interferon in chronically infected previously untreated HBV patients. PBO: placebo. peg-IFN: pegylated interferon alpha2a. 150 BID: 150 mg twice daily. 300 QD: 300 mg once daily. pgRNA: pregenomic ribonucleic acid.
as §1

[1] = human, in vivo, 4 weeks
Description: Therefore, in a particular aspect, EYP001 is administered once a day.

HBsAg = type: in vivo, human; settings: 400 mg QD EYP001, end of treatment day 29, p<0.05
Text: as §1

FXR = molecular target: T1, FXR (Homo sapiens, UniProt Q96RI1); assay: FXR engagement markers (C4, FGF19) in HBV patients; type: in vivo; settings: all EYP001 doses; data not shown
T1 construct: FXR engagement with all EYP001 doses led to decreases in C4 and increases in FGF19; from tissue; host or cells: endogenous FXR in the tissues of treated HBV patients (in vivo clinical study)
T1 sequence (Q96RI1 1-486): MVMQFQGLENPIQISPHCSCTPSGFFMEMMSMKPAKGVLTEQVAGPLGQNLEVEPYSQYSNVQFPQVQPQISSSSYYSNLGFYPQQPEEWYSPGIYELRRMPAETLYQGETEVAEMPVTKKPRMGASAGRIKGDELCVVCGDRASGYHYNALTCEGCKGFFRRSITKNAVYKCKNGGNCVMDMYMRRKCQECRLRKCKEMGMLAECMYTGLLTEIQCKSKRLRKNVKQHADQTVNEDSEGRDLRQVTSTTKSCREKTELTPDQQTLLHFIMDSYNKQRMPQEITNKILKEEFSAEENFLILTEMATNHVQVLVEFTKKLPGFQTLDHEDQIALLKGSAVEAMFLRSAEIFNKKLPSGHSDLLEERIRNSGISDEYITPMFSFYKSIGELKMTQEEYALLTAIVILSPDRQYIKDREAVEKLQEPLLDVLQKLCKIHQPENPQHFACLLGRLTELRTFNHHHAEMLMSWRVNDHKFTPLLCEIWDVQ
Text: as §1

HBV replication = assay: Synergistic effect of combined treatment on HBV replication markers (pgRNA and HBcrAg) in patients; type: in vivo, human; settings: same dose, same period of 4 weeks, monotherapy
Text: By “a synergistic effect” is intended to refer to an effect for decreasing the HBV replication which is more than the sum of the effects of each molecule alone. HBV replication can be assessed by determining surface HBV antigen (HBsAg), HBeAg, HBV core related antigen (HBcrAg), HBV DNA, HBV pre-genomic RNA, HBV pre-core RNA and/or HBV cccDNA. More particularly, the effect is observed on the pre-genomic RNA (HBV pgRNA) and/or on the hepatitis B core related antigen (HBcrAg).
as §1, with “(4). FXR engagement with all EYP001 doses led to decreases in C4 and increases in FGF19 (data not shown).” for “(4).”
At end of treatment on day 29, 400 mg QD EYP001 decrease the mean HBsAg by −0.1 log 10 IU/mL (p<0.05). […]

HBV = settings: chronic hepatitis B patients; Erken et al 2018; cited from earlier work
[2] = ETV open-label 0.5 mg/day, end of treatment day 29
[3] = EYP001a 1 × 100 mg/day monotherapy, day 29
[4] = EYP001a 1 × 200 mg/day monotherapy, day 29
[5] = EYP001a 1 × 400 mg/day monotherapy, day 29
[6] = EYP001a 2 × 200 mg/day monotherapy, day 29

| Compound | HBcrAg mean change (HBcrAg; [2]) [Log10 IU mL] | HBVpgRNA mean change (HBV pgRNA; [2]) [Log10 Copies mL] | HBcrAg mean change (HBcrAg; [3]) [Log10 IU mL] | HBcrAg mean change (HBcrAg; [4]) [Log10 IU mL] | HBcrAg mean change (HBcrAg; [5]) [Log10 IU mL] | HBcrAg mean change (HBcrAg; [6]) [Log10 IU mL] | pruritus, once a day versus twice a day [1] | mean HBsAg decrease (HBsAg) [log 10 IU/mL] | change in C4 (FXR) | change in FGF19 (FXR) | effect when used alone (HBV replication) | HBVpgRNA mean change (HBV pgRNA; [3]) [Log10 Copies mL] | HBVpgRNA mean change (HBV pgRNA; [4]) [Log10 Copies mL] | HBVpgRNA mean change (HBV pgRNA; [5]) [Log10 Copies mL] | HBVpgRNA mean change (HBV pgRNA; [6]) [Log10 Copies mL] | HBV viral load (HBV) |
| --- | --- | --- | --- | --- | --- | --- | --- | --- | --- | --- | --- | --- | --- | --- | --- | --- |
| C=C1[C@H](CO)[C@@H](O)C[C@@H]1n1cnc2c(=O)[nH]c(N)nc21 [ETV, entecavir, reference compound] | 0.03 | −0.3 |  |  |  |  |  |  |  |  |  |  |  |  |  |  |
| O=C(O)c1cc2c(Cl)c(N3CCN(S(=O)(=O)c4c(Cl)cccc4Cl)CC3)ccc2o1 [EYP001] |  |  | −0.3 | 0.2 | 0.02 | 1.2 | fewer pruritus occurs when EYP001 is administered once a day | −0.1 | decreases | increases | do not show a significant effect | 0.5 | 0.4 | 0.2 | −0.1 | reduces HBV viral load |
